Source: the NIST ThermoML archive (doi:10.1021/acs.jced.7b00106)

Conditions: Hot wire method

FC(F)(F)/C=C/Cl [(E)-1-chloro-3,3,3-trifluoroprop-1-ene]
Conditions | thermal conductivity [W/m/K]
302.53 K, 136 kPa, Gas | 0.01102
302.53 K, 16444 kPa, Liquid | 0.0897
302.53 K, 47194 kPa, Liquid | 0.1006
302.55 K, 122 kPa, Gas | 0.01105
302.55 K, 36223 kPa, Liquid | 0.09702
302.57 K, 8074 kPa, Liquid | 0.08557
302.59 K, 25791 kPa, Liquid | 0.09335
302.6 K, 16014 kPa, Liquid | 0.08919
302.61 K, 11882 kPa, Liquid | 0.08715
302.61 K, 30546 kPa, Liquid | 0.0947
302.62 K, 142 kPa, Gas | 0.01123
302.62 K, 7818 kPa, Liquid | 0.08552
302.64 K, 122 kPa, Gas | 0.01131
302.64 K, 131 kPa, Gas | 0.01128
302.64 K, 139 kPa, Gas | 0.01119
302.65 K, 7853 kPa, Liquid | 0.08571
302.65 K, 25491 kPa, Liquid | 0.09284
302.66 K, 20510 kPa, Liquid | 0.09077
302.68 K, 16449 kPa, Liquid | 0.08922
302.7 K, 373 kPa, Liquid | 0.08122
302.72 K, 4080 kPa, Liquid | 0.08356
302.72 K, 8075 kPa, Liquid | 0.08531
302.75 K, 11886 kPa, Liquid | 0.08659
302.75 K, 16005 kPa, Liquid | 0.08846
302.75 K, 62930 kPa, Liquid | 0.106
302.76 K, 303 kPa, Liquid | 0.08187
302.76 K, 65463 kPa, Liquid | 0.1068
302.78 K, 7822 kPa, Liquid | 0.08491
302.79 K, 56432 kPa, Liquid | 0.1045
302.81 K, 7852 kPa, Liquid | 0.08507
302.82 K, 48051 kPa, Liquid | 0.1011
302.83 K, 48410 kPa, Liquid | 0.1013
302.85 K, 131 kPa, Gas | 0.0108
302.85 K, 136 kPa, Gas | 0.01096
302.86 K, 122 kPa, Gas | 0.011
302.87 K, 381 kPa, Liquid | 0.08077
302.88 K, 4074 kPa, Liquid | 0.08317
302.91 K, 62949 kPa, Liquid | 0.1057
302.92 K, 299 kPa, Liquid | 0.08155
302.92 K, 36387 kPa, Liquid | 0.09706
302.92 K, 65445 kPa, Liquid | 0.1067
302.93 K, 41986 kPa, Liquid | 0.09906
302.93 K, 47187 kPa, Liquid | 0.1008
302.95 K, 36224 kPa, Liquid | 0.09698
302.95 K, 56429 kPa, Liquid | 0.1038
302.98 K, 48055 kPa, Liquid | 0.1009
303 K, 48417 kPa, Liquid | 0.101
303.02 K, 25798 kPa, Liquid | 0.09309
303.03 K, 30542 kPa, Liquid | 0.09496
303.04 K, 142 kPa, Gas | 0.01123
303.06 K, 137 kPa, Gas | 0.01133
303.07 K, 121 kPa, Gas | 0.01128
303.07 K, 131 kPa, Gas | 0.01133
303.08 K, 25486 kPa, Liquid | 0.09308
303.09 K, 20509 kPa, Liquid | 0.09124
303.09 K, 41994 kPa, Liquid | 0.09863
303.09 K, 47182 kPa, Liquid | 0.1005
303.12 K, 16450 kPa, Liquid | 0.08937
303.12 K, 36213 kPa, Liquid | 0.09661
303.17 K, 135 kPa, Gas | 0.01096
303.18 K, 122 kPa, Gas | 0.01101
303.18 K, 132 kPa, Gas | 0.0107
303.18 K, 8071 kPa, Liquid | 0.0855
303.2 K, 16008 kPa, Liquid | 0.08894
303.2 K, 25794 kPa, Liquid | 0.0928
303.21 K, 11886 kPa, Liquid | 0.08665
303.21 K, 30558 kPa, Liquid | 0.09462
303.24 K, 7824 kPa, Liquid | 0.08506
303.25 K, 25489 kPa, Liquid | 0.09272
303.27 K, 20510 kPa, Liquid | 0.09093
303.28 K, 7854 kPa, Liquid | 0.08529
303.31 K, 16446 kPa, Liquid | 0.08918
303.31 K, 62940 kPa, Liquid | 0.1059
303.32 K, 65424 kPa, Liquid | 0.1066
303.34 K, 383 kPa, Liquid | 0.08114
303.35 K, 4071 kPa, Liquid | 0.08347
303.36 K, 56409 kPa, Liquid | 0.1043
303.38 K, 8070 kPa, Liquid | 0.08486
303.38 K, 16014 kPa, Liquid | 0.08858
303.39 K, 11885 kPa, Liquid | 0.08675
303.4 K, 295 kPa, Liquid | 0.08173
303.4 K, 48041 kPa, Liquid | 0.1012
303.42 K, 48413 kPa, Liquid | 0.1013
303.44 K, 7814 kPa, Liquid | 0.0847
303.47 K, 7846 kPa, Liquid | 0.0848
303.5 K, 136 kPa, Gas | 0.01133
303.5 K, 62957 kPa, Liquid | 0.1058
303.5 K, 65425 kPa, Liquid | 0.1067
303.51 K, 132 kPa, Gas | 0.01137
303.51 K, 41983 kPa, Liquid | 0.09892
303.51 K, 47179 kPa, Liquid | 0.1008
303.53 K, 122 kPa, Gas | 0.01133
303.54 K, 4064 kPa, Liquid | 0.08281
303.54 K, 56404 kPa, Liquid | 0.1037
303.56 K, 36213 kPa, Liquid | 0.09672
303.59 K, 293 kPa, Liquid | 0.08112
303.6 K, 48039 kPa, Liquid | 0.101
303.61 K, 48415 kPa, Liquid | 0.101
303.71 K, 41980 kPa, Liquid | 0.09862
303.71 K, 47178 kPa, Liquid | 0.1004
303.76 K, 36210 kPa, Liquid | 0.09644
303.97 K, 136 kPa, Gas | 0.01134
304 K, 121 kPa, Gas | 0.01134
304.01 K, 131 kPa, Gas | 0.01133
304.5 K, 135 kPa, Gas | 0.01137
304.51 K, 122 kPa, Gas | 0.01139
304.53 K, 130 kPa, Gas | 0.01127
305.03 K, 135 kPa, Gas | 0.0114
305.05 K, 121 kPa, Gas | 0.0114
305.16 K, 131 kPa, Gas | 0.01092
305.6 K, 134 kPa, Gas | 0.01142
305.62 K, 122 kPa, Gas | 0.01143
305.74 K, 132 kPa, Gas | 0.01105
311.53 K, 157 kPa, Gas | 0.01177
311.84 K, 158 kPa, Gas | 0.01185
311.93 K, 134 kPa, Gas | 0.01187
312.17 K, 165 kPa, Gas | 0.01181
312.19 K, 159 kPa, Gas | 0.01198
312.22 K, 98 kPa, Gas | 0.012
312.23 K, 134 kPa, Gas | 0.01169
312.26 K, 135 kPa, Gas | 0.01202
312.37 K, 191 kPa, Gas | 0.012
312.46 K, 165 kPa, Gas | 0.01175
312.5 K, 133 kPa, Gas | 0.0117
312.53 K, 160 kPa, Gas | 0.01191
312.56 K, 98 kPa, Gas | 0.01197
312.64 K, 135 kPa, Gas | 0.01197
312.67 K, 191 kPa, Gas | 0.01194
312.76 K, 166 kPa, Gas | 0.01173
312.79 K, 131 kPa, Gas | 0.01152
312.81 K, 96 kPa, Gas | 0.01168
312.82 K, 133 kPa, Gas | 0.01159
312.93 K, 97 kPa, Gas | 0.01203
312.94 K, 162 kPa, Gas | 0.01192
312.97 K, 190 kPa, Gas | 0.01196
313.06 K, 134 kPa, Gas | 0.01201
313.06 K, 195 kPa, Gas | 0.01197
313.07 K, 167 kPa, Gas | 0.01173
313.11 K, 96 kPa, Gas | 0.0116
313.11 K, 130 kPa, Gas | 0.0115
313.15 K, 132 kPa, Gas | 0.01155
313.31 K, 97 kPa, Gas | 0.01207
313.35 K, 195 kPa, Gas | 0.01196
313.36 K, 163 kPa, Gas | 0.01197
313.42 K, 96 kPa, Gas | 0.01157
